Assay [1] deals with T1, HIV-1 integrase (IN) (Human immunodeficiency virus type 1 group M subtype B, UniProt P12497). The assay is described as follows: In vitro integrase catalytic assay, 3'-processing (3'-P). Format: biochemical. Particulars: 400 nM IN, 20 nM 32P-labeled 21T/21B DNA, 37 °C, 2 h. As for the experimental part:
(§1) IN reactions were performed as previously described. […] Reactions were performed at 37 °C (2 h) and quenched by the addition of an equal volume of loading buffer (formamide containing 1% sodium dodecyl sulfate, 0.25% bromophenol blue, and xylene cyanol). Reaction products were separated in 16% polyacrylamide denaturing sequencing gels. Dried gels were visualized using a Typhoon 8600 instrument (GE Healthcare, Chicago, IL, USA). Densitometric analyses were performed using ImageQuant 5.1 software (GE Healthcare, Chicago, IL, USA). Data analyses (linear regression, 50% inhibitory concentration [IC50] determination, standard deviation [SD]) were performed from at least 3 independent determinations using Prism 5.0c software from GraphPad (La Jolla, CA, USA). To assay 3′-P inhibitory potency, reactions were carried out with [γ-^32P]-labeled full-length oligonucleotide 21T ([…]) annealed to the complementary oligonucleotide 21B ([…]). Formation of the shorter processed 19T products was monitored and quantified to assess enzyme performance and inhibitor potency. The ST reactions were carried out with the [γ-^32P]-labeled pre-cleaved oligonucleotide 19T ([…]) annealed to the complementary oligonucleotide 21B ([…]) and formation of integration products (longer and slower migrating than the starting 19T substrate) was monitored to assess enzyme performance and inhibitor potency.

Assay [2] concerns the target T1, HIV-1 integrase (IN). Put plainly: In vitro integrase catalytic assay, strand transfer (ST). Particulars: 400 nM IN, 20 nM 32P-labeled pre-cleaved 19T/21B DNA, 37 °C, 2 h. In kind it is biochemical. As for the experimental part:
as §1

The target in a further assay is IN-DNA complex (Human immunodeficiency virus type 1 group M subtype B, UniProt P12497). Put plainly: IN-DNA complex formation by fluorescence anisotropy. In kind it is binding, HIV-1. Particulars: IN (400 nM) preincubated with peptide, 10 nM DNA. As for the experimental part:
(§2) DNA binding was measured using a plate-based assay following fluorescence polarization of a fluorescent 21-mer duplex DNA substrate (21T/21B duplex oligonucleotide) with an AlexaFluor 488 modification at the 5′-end of the 21T oligonucleotide. Peptide or DMSO (control, without peptide) were incubated at room temperature for 5 min in the IN-activity buffer in the absence or the presence of IN (400 nM). After addition of the DNA (10 nM), fluorescence anisotropy was measured every 30 s for 30 min using an Envision plate reader (Perkin Elmer, Waltham, MA, USA).

Assay [3] has as its system 21-mer duplex DNA substrate (21T/21B). Put plainly: Binding to DNA substrate alone by fluorescence anisotropy. Particulars: absence of IN; concentrations up to 37 µM. As to the method:
as §2
(In fluorescence polarisation assays a small probe gives low polarisation when free and higher when bound to something large.)

Assay [4] addresses T2, HIV-1 IN (Human immunodeficiency virus type 1 group M subtype B, UniProt P12497). The assay is described as follows: HTRF-based IN multimerization assay. Format: biochemical. On the set-up: WT HIV-1 IN recombinant proteins with His or FLAG tags; made in house; host or cells: Escherichia coli. Particulars: 100 µM peptide. As for the experimental part: WT HIV-1 IN recombinant proteins with His or FLAG tags were expressed in Escherichia coli and purified as described previously. The His6–tagged IN construct was purified by loading the cell lysate onto a Nickel-Sepharose column (GE Healthcare, Chicago, IL, USA) and eluting bound integrase with an imidazole gradient in a 50 mM HEPES (pH 7.5) buffer containing 1 M NaCl, 7.5 mM CHAPS, 2 mM beta-mercaptoethanol. Peak fractions were pooled, diluted and loaded onto a heparin column (GE Healthcare), and integrase was eluted with an increasing NaCl gradient in a 50 mM HEPES (pH 7.5) buffer containing 7.5 mM CHAPS and 2 mM beta-mercaptoethanol. The FLAG-tagged IN construct was purified by loading the ammonium sulfate precipitate of cell lysate onto a phenyl-Sepharose column (GE Healthcare) and eluting bound integrase with a decreasing ammonium sulfate gradient in a 50 mM HEPES (pH 7.5) buffer containing 200 mM NaCl, 7.5 mM CHAPS, 2 mM beta-mercaptoethanol. Peak fractions were pooled and loaded onto a heparin column (GE Healthcare), and integrase was eluted with an increasing NaCl gradient in a 50 mM HEPES (pH 7.5) buffer containing 7.5 mM CHAPS and 2 mM beta-mercaptoethanol. […] The HTRF signal was recorded using a PerkinElmer EnSpire multimode plate reader.
For orientation: Time-resolved FRET reads energy transfer from a long-lived donor to a nearby acceptor.

The target of assay [5] is T2, HIV-1 IN. Put plainly: UV photo-crosslinking to IN with Western blot detection. In kind it is binding. The note with it: 15 (111 µM), IN (3.2 µM). As to the method: Peptide 15 (111 µM), containing a photo-reactive Bpa group and a biotin linked to its amino terminus, was incubated for 2 h at 37 °C in the absence or the presence of IN (3.2 µM) before UV irradiation (5 min at […]). After adding 2 × 10 µL of loading buffer, samples were heat-denatured at 95 °C (5 min). Products were separated on 16% SDS-PAGE and transferred to a PVDF membrane using an iBlot system (Invitrogen, Carlsbad, CA, USA). […] Reading was performed using an Odyssey® Infrared Imaging System (LI-COR Biotechnology, Lincoln, NE, USA).
Background: A western blot detects proteins with antibodies after separation by electrophoresis.

A further assay has as its system IN. On the set-up: method as in PMID 17490682. Particulars: read-out: IN ST-inhibitory potency IC50; cited from earlier work.

“And” between values parts separate entries of the source, which are not always exact repeats. Identical values can stand only once. Where a SMILES comes first, the peptide text is derived from it. [ ]: non-standard residue; d: D form. Bpa = N[C@@H](Cc1ccc(C(=O)c2ccccc2)cc1)C(=O)O

As for `CC[C@H](C)[C@H](NC(=O)[C@H](CCCNC(=N)N)NC(=O)[C@H](Cc1ccccc1)NC(=O)[C@H](Cc1c[nH]cn1)NC(=O)[C@@H](NC(=O)[C@@H](N)Cc1ccccc1)[C@@H](C)CC)C(=O)NCC(=O)O` [Peptide 1a, FIHFRIG] (H-FIHFRIG-OH), the IC50 (as a rule, the concentration that inhibits the measured activity by half) against HIV-1 integrase (IN) [1] is 17.6 ± 1.2 µM; at HIV-1 integrase (IN) [2], 1 µM and 1.3 µM. Also, at IN-DNA complex, the “Effect on IN-DNA complex formation (fluorescence polarization)” value is on record as “did not block the IN–DNA interactions, but rather promoted IN–DNA complex formation”. In addition, in assay [3], the “Binding to DNA substrate alone” value is on record as “no detectable binding”. Further, the “Induction of higher-order IN multimerization (HTRF signal)” value on HIV-1 IN [4] is “did not induce higher-order IN multimerization”.
Take `CC[C@H](C)[C@H](NC(=O)[C@H](CCCNC(=N)N)NC(=O)[C@H](Cc1ccc(C(=O)c2ccccc2)cc1)NC(=O)[C@H](Cc1c[nH]cn1)NC(=O)[C@@H](NC(=O)[C@@H](N)Cc1ccccc1)[C@@H](C)CC)C(=O)NCC(=O)O` [Peptide 11a, FIHBRIG] (H-FIH[Bpa]RIG-OH): the half-maximal inhibitory concentration (IC50) was found to be 34 ± 6 µM on HIV-1 integrase (IN) [1] and 4.2 ± 0.7 µM against HIV-1 integrase (IN) [2].
The like results for `CC[C@H](C)[C@H](NC(=O)[C@H](CCCNC(=N)N)NC(=O)[C@H](Cc1ccccc1)NC(=O)[C@H](Cc1ccc(C(=O)c2ccccc2)cc1)NC(=O)[C@@H](NC(=O)[C@@H](N)Cc1ccccc1)[C@@H](C)CC)C(=O)NCC(=O)O` [Peptide 12a, FIBFRIG] (H-FI[Bpa]FRIG-OH) were, in that order, 6.5 ± 0.9 µM and 2.2 ± 0.6 µM.
As to `CC[C@H](C)[C@H](NC(=O)[C@H](CCCNC(=N)N)NC(=O)[C@H](Cc1ccccc1)NC(=O)[C@H](Cc1c[nH]cn1)NC(=O)[C@H](Cc1ccc(C(=O)c2ccccc2)cc1)NC(=O)[C@@H](N)Cc1ccccc1)C(=O)NCC(=O)O` [Peptide 13a, FBHFRIG] (H-F[Bpa]HFRIG-OH), the concentration for half-maximal inhibition (IC50) against HIV-1 integrase (IN) [1] was found to be 37 ± 5 µM; against HIV-1 integrase (IN) [2], 20 ± 3 µM.
With `CC[C@H](C)[C@H](NC(=O)[C@H](CCCNC(=N)N)NC(=O)[C@H](Cc1ccccc1)NC(=O)[C@H](Cc1c[nH]cn1)NC(=O)[C@@H](NC(=O)[C@@H](N)Cc1ccc(C(=O)c2ccccc2)cc1)[C@@H](C)CC)C(=O)NCC(=O)O` [Peptide 14a, BIHFRIG] (H-[Bpa]IHFRIG-OH), the IC50 at HIV-1 integrase (IN) [1] amounted to 7.2 ± 1.2 µM; at HIV-1 integrase (IN) [2] it was 2.1 ± 0.3 µM.
Take Biotin-linker-BIHFRIG [Peptide 15]: the 50% inhibitory concentration (IC50) against HIV-1 integrase (IN) [1] turned out to be 32 ± 7 µM; on HIV-1 integrase (IN) [2], 2.3 ± 0.3 µM. The “Covalent crosslinking to IN upon UV irradiation” value at HIV-1 IN [5] was “covalent adducts of 15 with IN”.
On to QQLLFIHFRIGCQHS [Vpr (65–79)], for which the IC50 in the assay on IN was 14 µM.
